Patent US8440625B2, “Secreted protein acidic and rich in cysteine (SPARC) as chemotherapeutic sensitizers” (University of British Columbia, priority 2006, dated 2013)
“Also recorded” adds a separate entry of the source.

B1: Secreted protein acidic and rich in cysteine (protein, listed as Homo sapiens)
chain: MRAWIFFLLCLAGRALAAPQQEALPDETEVVEETVAEVTEVSVGANPVQVEVGEFDDGAEETEEEVVAENPCQNHHCKHGKVCELDENNTPMCVCQDPTSCPAPIGEFEKVCSNDNKTFDSSCHFFATKCTLEGTKKGHKLHLDYIGPCKYIPPCLDSELTEFPLRMRDWLKNVLVTLYERDEDNNLLTEKQKLRVKKIHENEKRLEAGDHPVELLARDFEKNYNMYIFPVHWQFGQLDQHPIDGYLSHTELAPLRAPLIPMEHCTTRFFETCDLDNDKYIALDEWAGCFGIKQKDIDKDLVI
notes: 303 amino acid SPARC protein, also known as osteonectin

Experiments:
MIP 101 cells = experiment: Peptide assay, cell viability (MTS), 5FU sensitive cells; type: cell-based; settings: for cell viability: 96 or 200 μg/ml
Experimental: (§1) Sensitive MIP 101 and resistant MIP/5FU cells were seeded at a density of 8,000 cells/well (96-well plate) in DMEM supplemented with 10% FBS, 1% penicillin/streptomycin. After incubation at 37° C. with 5% CO2 for 48 hrs, the media was removed and fresh serum-free conditioned medium (VP-SFM, Invitrogen) containing the peptide of interest was incubated for an additional 48 hrs in the presence or absence of 500 μM 5-FU. Cell viability was assessed by MTS assay.
(§2) Peptides were custom synthesized by Sigma. Peptides A, A1, A2, A3 were dissolved in 0.1% DMSO. Peptides B8, B14, B8-scramble and B14-scramble were dissolved in PBS. For the MTS cell viability assay, a dose response curve was obtained using a “high” peptide concentration of 200 μg/ml, and a “low” peptide concentration of […].
(§3) For the MTS assay, 3-(4,5-dimethylthiazol-2-yl)-5-(3-carboxy-methoxyphenyl)-2-(4-sulfophenyl)-2H-tetrazolium inner salt (MTS) and phenazine methosulfate (PMS), purchased from Promega (Madison, Wis.), were mixed in the proportions 2:0.92 μg/ml, and 25 μl of the mixture was added to each well. After incubation at 37° C. with 5% CO2 for 2 h, the absorbance of each well at 490 nm was measured in a 96-well plate reader (Versa Max, version 4.8, Molecular Devices Co.) according to the manufacturer's instructions. Cell viability was expressed as a percentage of control.

MIP/5FU cells = experiment: Peptide assay, cell viability (MTS), 5FU resistant cells; type: cell-based; settings: for cell viability / sensitivity to 5-FU: peptide 96 or 200 μg/ml plus 5-FU 500 μM, compared to 5-FU alone
Experimental: (§4) Resistant MIP101 cells were developed following long-term incubation with incremental concentrations of 5 fluorouracil (5-FU) (10-500 uM), irinotecan (CPT) (1-50 uM; Pharmacia), cisplatin (CIS) (1-100 uM) or etoposide (ETO) (0.1-5 uM: Sigma-Aldrich). The concentration of each agent was increased 10% every 2 weeks for a 6 month period.
as §1, §2, §3

MIP/CPT cells = experiment: Transient transfection of SPARC fragments, cell viability (MTS) with irinotecan, resistant cells; type: cell-based; settings: cells transfected with control (empty vector), 500 uM CPT-11
Experimental: Polynucleotide fragments corresponding to SEQ ID NO: 2, SEQ ID NO: 4 or SEQ ID NO: 6 were amplified by PCR and inserted into the pSecTag vector (Invitrogen), and verified by sequencing.
Colorectal cell lines MIP101 and MIP/CPT cells were maintained in Dulbecco's modified Eagle's medium (DMEM) (Invitrogen) supplemented with 10% fetal bovine serum (FBS) (Invitrogen), 1% penicillin/streptomycin (Invitrogen) at 37° C. and 5% CO2.
as §4
Transient transfections were performed as previously described (Tai TC et al., 2001. J Neurochem; 76:1851-9) Briefly, MIP 101 colorectal cancer cells and resistant MIP/CPT cells grown to 50-60% confluency in 96-well tissue culture plates were transfected with 1.0 μg of vector (control) or vector+SPARC fragments using PEI transfection (Tai, T. C. et al., 2002. Mol Pharmacol 61:1385-92). […] Cell proliferation was assessed by MTS assay (Promega). […]

resistant tumours = settings: protein administered; response of resistant tumours to 5-fluorouracil, irinotecan, cisplatin or etoposide; cited from earlier work
[1] = peptide alone, high concentration (200 μg/ml)
[2] = peptide high concentration (200 μg/ml) in combination with 5-FU 500 μM

Molecule	% cell viability (MIP 101 cells; [1])	% cell viability (MIP 101 cells; [2])	% cell viability (MIP/5FU cells; [1])	% cell viability (MIP/5FU cells; [2])	further results
B8-SCR: scrambled B8 negative control peptide QPLEAVQPTAVEEDAEVETTEEV (B8 scrambled) [Peptide B8-SCR, reference compound]	did not significantly affect	did not significantly affect	did not significantly affect	did not significantly affect	
A: first 17 amino acids of full length SPARC with additional N-terminal residues: ESALCLPPACLPLRVPSTMRAWLFFLLCLAGRALA (ESALCLPPACLPLRVPSTMRAWIFFLLCLAGRALA; listed as Homo sapiens)	did not significantly affect	did not significantly affect	did not significantly affect	did not significantly affect	
B14: SPARC peptide CQNHHCKHGKVCELDENNTPMCVCQDPTSCP (SEQ ID NO: 9) (listed as Homo sapiens) [Peptide B14]					cell viability (MIP 101 cells; peptide alone): did not significantly affect viability; cell viability / sensitivity to 5-FU (MIP/5FU cells): cell viability decreased; cell viability (MIP/5FU cells; peptide alone, 96 or 200 μg/ml): did not significantly affect viability
O=c1[nH]cc(F)c(=O)[nH]1 [Peptide 5-FU, 5-fluorouracil, reference compound]					cell viability (MIP/5FU cells; 5-FU alone (500 μM)): greater viability; also recorded: no effect on cell viability
H-APQQEALPDETEVVEETVAEVTE-OH [Peptide B8]					cell viability (MIP 101 cells; peptide alone): did not affect cell viability; cell viability / sensitivity to 5-FU (MIP/5FU cells): increasing sensitivity of the resistant cells; cell viability (MIP/5FU cells; peptide alone, 96 or 200 μg/ml): did not affect cell viability
A1: first 17 amino acids of the full length SPARC protein: MRAWIFFLLCLAGRALA (listed as Homo sapiens) [Peptide A1]	did not significantly affect	did not significantly affect	did not significantly affect	did not significantly affect	
A3: first 17 amino acids of SPARC with additional N-terminal residues: CLPPACLPLRVPSTMRAWIFFLLCLAGRALA (listed as Homo sapiens) [Peptide A3]	did not significantly affect	did not significantly affect	did not significantly affect	did not significantly affect	
A2: first 17 amino acids of SPARC with additional N-terminal residues: ACLPLRVPSTMRAWIFFLLCLAGRALA (listed as Homo sapiens) [Peptide A2]	did not significantly affect	did not significantly affect	did not significantly affect	did not significantly affect	
CCc1c2c(nc3ccc(OC(=O)N4CCC(N5CCCCC5)CC4)cc13)-c1cc3c(c(=O)n1C2)COC(=O)[C@]3(O)CC [CPT-11, irinotecan]					cell viability (MIP/CPT cells): remained viable
B1					chemosensitizing activity (resistant tumours): chemosensitizing activity has been demonstrated
